TGI data for 14 compounds are collected here from PubChem BioAssay (NCI).

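Growth conditions: 96-well plates. Treatment: test compound, 48 hours, 5 concentrations. Analysis: linear interpolation between bracketing concentrations; unreached endpoints set to highest concentration. TGI: total growth inhibition.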

Among the test systems are UO-31 renal; SF-295 CNS; OVCAR-5 ovarian; U251 CNS; SF-268 CNS; IGROV1 ovarian; KM12 colon; MALME-3M melanoma; EKVX NSCLC; TK-10 renal.
Holding throughout (test): inhibition of tumour cell growth, NCI panel, 48 h

Consider `O=c1cc(-c2ccc(O)cc2)n(C2CC2)c2ccccc12`, for which the TGI in the experiment on UO-31 renal is 21.1 µM; in the experiment on SF-295 CNS it was 11.9 µM; in the experiment on OVCAR-5 ovarian, 19.4 µM; in the experiment with U251 CNS, 21.6 µM; with SF-268 CNS it was 24.5 µM; with IGROV1 ovarian, over 100 µM. In addition, in the experiment on KM12 colon, the TGI is 16.2 µM.

For `CSc1nc(NC2OCC(OC(C)=O)C(OC(C)=O)C2OC(C)=O)c(N=C(C)C(C)=O)c(=O)[nH]1` (configuration not stated), the TGI with SF-295 CNS, with OVCAR-5 ovarian, with U251 CNS, with SF-268 CNS, in the experiment on IGROV1 ovarian and with MALME-3M melanoma was over 100 µM in each case. In addition, the TGI in the experiment with EKVX NSCLC, with KM12 colon and in the experiment on TK-10 renal was over 100 µM in each case.

As for `O=C(C=P(c1ccccc1)(c1ccccc1)c1ccccc1)c1cccc(-c2cccc([N+](=O)[O-])c2)c1`, the TGI was 20.3 µM in the experiment on UO-31 renal; 35.3 µM in the experiment with SF-295 CNS; over 100 µM with OVCAR-5 ovarian; over 100 µM with U251 CNS; over 100 µM in the experiment with SF-268 CNS; 38.4 µM with IGROV1 ovarian. Moreover, the TGI in the experiment with MALME-3M melanoma was 9.28 µM; in the experiment on EKVX NSCLC, over 100 µM; with KM12 colon, over 100 µM; in the experiment on TK-10 renal it was over 100 µM.

As to `O=C1N(c2ccccc2)C2(c3ccccc3)CC3CCCC13S2` (configuration not stated), the TGI in the experiment on UO-31 renal, with SF-295 CNS, in the experiment with OVCAR-5 ovarian, with U251 CNS, in the experiment on SF-268 CNS and in the experiment with IGROV1 ovarian was over 100 µM in each case. For the same compound, the TGI in the experiment on MALME-3M melanoma is over 100 µM; in the experiment on EKVX NSCLC it was over 100 µM; in the experiment on KM12 colon, over 100 µM; with TK-10 renal, 1.84 µM.

`O=C(C[C@H](NC(=O)OCc1ccccc1)C(=O)NC1Cc2ccccc2OC1=O)OCc1ccccc1` (some centres not stated): the TGI with UO-31 renal, with OVCAR-5 ovarian, with U251 CNS, with IGROV1 ovarian, with MALME-3M melanoma and with KM12 colon was over 100 µM each time.

Consider `N#Cc1c(NC(=S)Nc2ccc(Cl)cc2)sc2c1CCCC2`, for which the TGI in the experiment on UO-31 renal, in the experiment with SF-295 CNS, in the experiment on OVCAR-5 ovarian, in the experiment with U251 CNS, in the experiment on SF-268 CNS and in the experiment on IGROV1 ovarian was over 100 µM each time. Besides, the TGI in the experiment with MALME-3M melanoma, in the experiment on EKVX NSCLC, in the experiment on KM12 colon and in the experiment on TK-10 renal was over 100 µM each time.

In the case of `OC1(c2ccc(Cl)cc2)c2c(ccc3c2OCO3)C2=NCCN21` (configuration not stated), the TGI in the experiment with UO-31 renal was over 100 µM; in the experiment on SF-295 CNS it was over 100 µM; in the experiment with OVCAR-5 ovarian it was over 100 µM; with U251 CNS, over 100 µM; with SF-268 CNS it was over 100 µM; with IGROV1 ovarian, 54.9 µM. Also, the TGI was 21.2 µM in the experiment on MALME-3M melanoma, over 100 µM with EKVX NSCLC, 43.9 µM in the experiment with KM12 colon and 45.7 µM in the experiment with TK-10 renal.

Take `O=C(O)c1cc(=O)[nH]c(SCc2ccccc2)n1`: the TGI in the experiment on UO-31 renal, in the experiment on SF-295 CNS, in the experiment with OVCAR-5 ovarian, with U251 CNS, in the experiment with SF-268 CNS and with IGROV1 ovarian was over 100 µM throughout. The TGI in the experiment on MALME-3M melanoma, in the experiment with EKVX NSCLC, in the experiment on KM12 colon and in the experiment on TK-10 renal was over 100 µM in each case.

With `CC(C)CCC[C@@H](C)[C@H]1CC[C@H]2[C@@H]3CC[C@H]4C[C@H](N)CC[C@]4(C)[C@H]3CC[C@]12C`, the TGI with UO-31 renal was 30.3 µM; with SF-295 CNS, 45.5 µM; in the experiment on OVCAR-5 ovarian, 36.7 µM; in the experiment with U251 CNS, 43.8 µM; in the experiment with SF-268 CNS, over 100 µM; in the experiment on IGROV1 ovarian, 54.3 µM. Moreover, the TGI is 38.7 µM in the experiment with MALME-3M melanoma, 43.4 µM in the experiment on EKVX NSCLC, over 100 µM in the experiment with KM12 colon and 37.2 µM in the experiment with TK-10 renal.

Turning to `CCN(CC)CCCC(C)Nc1ccnc2cc3ccccc3cc12` (configuration not stated), the TGI in the experiment on UO-31 renal is 53.9 µM; in the experiment on SF-295 CNS, 24.6 µM; in the experiment with OVCAR-5 ovarian, over 100 µM; in the experiment on U251 CNS it was 42.1 µM; in the experiment with SF-268 CNS, 22.1 µM; in the experiment with IGROV1 ovarian, 50.7 µM. For the same compound, the TGI with MALME-3M melanoma is 45.1 µM; in the experiment with EKVX NSCLC it was over 100 µM; in the experiment on KM12 colon it was 33.8 µM; in the experiment with TK-10 renal, 78.6 µM.

Consider `Cc1nc2c(n1C)C(=O)c1nc(CBr)[nH]c(=O)c1C2=O`, for which the TGI with UO-31 renal was over 100 µM; in the experiment with SF-295 CNS, 5.27 µM; with U251 CNS, over 100 µM; in the experiment with SF-268 CNS, over 100 µM; in the experiment with IGROV1 ovarian it was over 100 µM; in the experiment with EKVX NSCLC, 54.9 µM. In the experiment on TK-10 renal, this compound had a TGI of over 100 µM.

Consider `N/C(=N\S(=O)(=O)c1cccc2nsnc12)Nc1ccc(Cl)cc1`, for which the TGI with UO-31 renal is over 100 µM; in the experiment with SF-295 CNS it was over 100 µM; with OVCAR-5 ovarian, over 100 µM; in the experiment with U251 CNS, 77.1 µM; with SF-268 CNS it was over 100 µM; in the experiment on IGROV1 ovarian, over 100 µM. The TGI in the experiment on MALME-3M melanoma was 40.2 µM; with EKVX NSCLC it was 63.7 µM; in the experiment with KM12 colon, over 100 µM; in the experiment on TK-10 renal, 62.8 µM.

As for `CC(C)(C)OC(=O)NCC(=O)NC1c2ccsc2/C(=N/O)[C@H]1O` (some centres not stated), the TGI in the experiment with UO-31 renal, in the experiment with SF-295 CNS, in the experiment with OVCAR-5 ovarian, with U251 CNS, with IGROV1 ovarian and in the experiment on MALME-3M melanoma was over 100 µM in each case. The TGI with EKVX NSCLC and in the experiment with TK-10 renal was over 100 µM each time.

On to `CCCCCCCCCCCCCCCc1ccc(OCC(O)CO)cc1` (configuration not stated), for which the TGI is over 100 µM with UO-31 renal; over 100 µM with SF-295 CNS; over 100 µM with OVCAR-5 ovarian; 55.9 µM in the experiment with U251 CNS; 82.4 µM with SF-268 CNS; over 100 µM with IGROV1 ovarian. Also, the TGI is 46.8 µM with MALME-3M melanoma, 78.5 µM in the experiment on EKVX NSCLC, 31.7 µM in the experiment on KM12 colon and over 100 µM in the experiment with TK-10 renal.
